In patent publication US7728028B2, “Substituted imidazoline compounds” (Gruenenthal GmbH, priority 2005, dated 2010) one finds inhibition data, which are given here for 19 molecules.

Molecules are shown by their SMILES.

T1 sequence (P35372 whole entry): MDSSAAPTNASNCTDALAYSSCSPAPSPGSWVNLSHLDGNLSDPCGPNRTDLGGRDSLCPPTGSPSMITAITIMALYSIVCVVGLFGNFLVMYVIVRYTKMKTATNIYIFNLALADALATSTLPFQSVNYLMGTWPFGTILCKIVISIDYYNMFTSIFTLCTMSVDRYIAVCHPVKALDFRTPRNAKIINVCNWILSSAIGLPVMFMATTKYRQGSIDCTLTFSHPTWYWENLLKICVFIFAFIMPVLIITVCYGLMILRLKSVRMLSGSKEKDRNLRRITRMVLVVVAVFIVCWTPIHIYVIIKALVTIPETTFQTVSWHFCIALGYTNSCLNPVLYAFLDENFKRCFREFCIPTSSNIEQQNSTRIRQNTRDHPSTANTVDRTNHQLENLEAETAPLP

This experiment has as its target T1, human μ-opiate receptor (Homo sapiens, UniProt P35372).
T1 construct: purchased PerkinElmer Life Sciences, Zaventem, Belgium RB-HOM; host or cells: CHO-K1 cells (recombinant expression; membrane preparation)
The experiment can be described thus: Affinity for the human μ-opiate receptor ([3H]-naloxone displacement, SPA). As to conditions: Table 2, Examples 11-161; test substance 1 μmole/l; inhibition of specific [3H]-naloxone binding; CHO-K1 membranes; read-out: μ-Opioid receptor, % inhibition [1 μM]. As for the experimental part:
Investigations on the Efficacy of the Compounds According to the Invention Method for Determining the Affinity for the Human μ-Opiate Receptor
The receptor affinity for the human μ-opiate receptor is determined in a homogeneous batch in microtiter plates. For this purpose dilution series of the substances to be tested are incubated with a receptor membrane preparation (15-40 μg protein/250 μl incubation batch) of CHO-K1 cells, which express the human μ-opiate receptor (RB-HOM receptor membrane preparation from PerkinElmer Life Sciences, Zaventem, Belgium), in the presence of 1 nmole/l of the radioactive ligand [^3H]-naloxone (NET719, PerkinElmer Life Sciences company, Zaventem, Belgium) and 1 mg WGA-SPA beads (wheat germ agglutinin SPA beads from Amersham/Pharmacia, Freiburg, Germany) in a total volume of 250 μl for 90 minutes at room temperature. 50 mmole/l of Tris-HCl supplemented with 0.06% bovine serum albumin is used as incubation buffer. In order to determine the non-specific binding, 100 μmole/l of naloxone is additionally added. After the end of the 90 minutes' incubation time the microtiter plates are centrifuged for 20 minutes at 1000 g and the radioactivity is measured in a beta counter (Microbeta-Trilux, PerkinElmer Wallac, Freiburg, Germany). The percentage displacement of the radioactive ligand from its binding to the human μ-opiate receptor at a concentration of the test substances of 1 μmole/l is determined and is given as percentage inhibition of the specific binding.
Turning to `CCCCC1(C(=O)OC)N=CN(Cc2ccccc2)C1CC1CCC(C(c2ccc(Cl)cc2)N(C)C)CC1` (stereo not shown) [Example 114, 1-benzyl-4-butyl-5-{4-[(4-chlorophenyl)-dimethylaminomethyl]-cyclohexylmethyl}-4,5-dihydro-1H-imidazole-4-carboxylic acid methyl ester], the inhibition at 1 µM was found to be 86%. The figure for `CCCCN1C=NC(Cc2ccc(Cl)cc2)(C(=O)OC)C1C1CCC(C(c2ccc(Cl)cc2)N(C)C)CC1` (stereo not shown) [Example 32, 1-butyl-4-(4-chlorobenzyl)-5-{4-[(4-chlorophenyl)-dimethylaminomethyl]-cyclohexyl}-4,5-dihydro-1H-imidazole-4-carboxylic acid methyl ester] is 74%; for `CCCN1C=NC(CSC)(C(=O)OC)C1CC1CCC(C(c2cccc(F)c2)N(C)C)CC1` (stereo not shown) [Example 158, 5-{4-[dimethylamino-(3-fluorophenyl)-methyl]-cyclohexylmethyl}-4-methylsulfanylmethyl-1-propyl-4,5-dihydro-1H-imidazole-4-carboxylic acid methyl ester] it is 95%.

`CCCCN1C=NC(CCC(=O)OC)(C(=O)OC)C1C1CCC(C(c2ccc(Cl)cc2)N(C)C)CC1` (stereo not shown) [Example 68, 1-butyl-5-{4-[(4-chlorophenyl)-dimethylaminomethyl]-cyclohexyl}-4-(2-methoxycarbonylethyl)-4,5-dihydro-1H-imidazole-4-carboxylic acid methyl ester]: the inhibition at 1 µM is 90%. The figure for `COC(=O)C1(CSC)N=CN(C2CCCCC2)C1CC1CCC(C(c2ccc(Cl)cc2)N(C)C)CC1` (stereo not shown) [Example 55, 5-{4-[(4-chlorophenyl)-dimethylaminomethyl]-cyclohexylmethyl}-1-cyclohexyl-4-methylsulfanylmethyl-4,5-dihydro-1H-imidazole-4-carboxylic acid methyl ester] is 91%. For the molecule `CCCCN1C=NC(CSC)(C(=O)OC)C1CC1CCC(C(c2cccc(F)c2)N(C)C)CC1` (stereo not shown) [Example 74, 1-butyl-5-{4-[dimethylamino-(3-fluorophenyl)-methyl]-cyclohexylmethyl}-4-methylsulfanylmethyl-4,5-dihydro-1H-imidazole-4-carboxylic acid methyl ester], the inhibition at 1 µM worked out at 95%. The figure for `CCCN1C=NC(CSC)(C(=O)OC)C1CC1CCC(C(c2ccc(F)cc2)N(C)C)CC1` (stereo not shown) [Example 160, 5-{4-[dimethylamino-(4-fluorophenyl)-methyl]-cyclohexylmethyl}-4-methylsulfanylmethyl-1-propyl-4,5-dihydro-1H-imidazole-4-carboxylic acid methyl ester] is 74%.

`COC(=O)CCC1(C(=O)OC)N=CN(CCc2ccccc2)C1C1CCC(C(c2cccc(F)c2)N(C)C)CC1` (stereo not shown) [Example 91, 5-{4-[dimethylamino-(3-fluorophenyl)-methyl]-cyclohexyl}-4-(2-methoxycarbonylethyl)-1-phenethyl-4,5-dihydro-1H-imidazole-4-carboxylic acid methyl ester]: the inhibition at 1 µM turned out to be 85%.

`COC(=O)C1(C)N=CN(C2CCCCC2)C1CC1CCC(C(CCc2ccccc2)N(C)C)CC1` (stereo not shown) [Example 110, 1-cyclohexyl-5-[4-(1-dimethylamino-3-phenylpropyl)-cyclohexylmethyl]-4-methyl-4,5-dihydro-1H-imidazole-4-carboxylic acid methyl ester]: the inhibition at 1 µM was 67%. `COC(=O)C1(CC(C)C)N=CN(Cc2ccccc2)C1C1CCC(C(c2cccc(F)c2)N(C)C)CC1` (stereo not shown) [Example 46, 1-benzyl-5-{4-[dimethylamino-(3-fluorophenyl)-methyl]-cyclohexyl}-4-isobutyl-4,5-dihydro-1H-imidazole-4-carboxylic acid methyl ester]: the inhibition at 1 µM is 92%. The figure for `COC(=O)C1(Cc2ccc(Cl)cc2)N=CN(CCc2ccccc2)C1CC1CCC(C(c2ccc(Cl)cc2)N(C)C)CC1` (stereo not shown) [Example 44, 4-(4-chlorobenzyl)-5-{4-[(4-chlorophenyl)-dimethylaminomethyl]-cyclohexylmethyl}-1-phenethyl-4,5-dihydro-1H-imidazole-4-carboxylic acid methyl ester] is 91%; for `COC(=O)C1(CCSC)N=CN(Cc2ccccc2)C1CC1CCC(C(c2cccc(F)c2)N(C)C)CC1` (stereo not shown) [Example 139, 1-benzyl-5-{4-[dimethylamino-(3-fluorophenyl)-methyl]-cyclohexylmethyl}-4-(2-methylsulfanyl-ethyl)-4,5-dihydro-1H-imidazole-4-carboxylic acid methyl ester] it is 100%.

For the molecule `CCCN1C=NC(CSCc2ccccc2)(C(=O)OC)C1CC1CCC(C(c2ccc(F)cc2)N(C)C)CC1` (stereo not shown) [Example 161, 4-benzylsulfanylmethyl-5-{4-[dimethylamino-(4-fluorophenyl)-methyl]-cyclohexylmethyl}-1-propyl-4,5-dihydro-1H-imidazole-4-carboxylic acid methyl ester], the inhibition at 1 µM worked out at 91%. Regarding `COC(=O)C1(CSCc2ccccc2)N=CN(CCc2ccccc2)C1C1CCC(C(c2cccc(F)c2)N(C)C)CC1` (stereo not shown) [Example 92, 4-benzylsulfanylmethyl-5-{4-[dimethylamino-(3-fluorophenyl)-methyl]-cyclohexyl}-1-phenethyl-4,5-dihydro-1H-imidazole-4-carboxylic acid methyl ester], the inhibition at 1 µM worked out at 95%. The value for `COC(=O)C1(C)N=CN(C2CCCCC2)C1CC1CCC(C(c2cccc(F)c2)N(C)C)CC1` (stereo not shown) [Example 104, 1-cyclohexyl-5-{4-[dimethylamino-(3-fluorophenyl)-methyl]-cyclohexylmethyl}-4-methyl-4,5-dihydro-1H-imidazole-4-carboxylic acid methyl ester] was 93%.

Take `CCCCN1C=NC(CSC)(C(=O)OC)C1CC1CCC(C(c2ccc(F)cc2)N(C)C)CC1` (stereo not shown) [Example 77, 1-butyl-5-{4-[dimethylamino-(4-fluorophenyl)-methyl]-cyclohexylmethyl}-4-methylsulfanylmethyl-4,5-dihydro-1H-imidazole-4-carboxylic acid methyl ester]: the inhibition at 1 µM was 88%. The figure for `CCC(C)C1(C(=O)OC)N=CN(C2CCCCC2)C1CC1CCC(C(c2ccc(Cl)cc2)N(C)C)CC1` (stereo not shown) [Example 54, Methyl-4-sec-butyl-5-((4-((4-chlorophenyl)(dimethylamino)methyl)cyclohexyl)methyl)-1-cyclohexyl-4,5-dihydro-1H-imidazole-4-carboxylate] is 100%; for `CCCC1(C(=O)OC)N=CN(CCc2ccccc2)C1CC1CCC(C(c2ccc(F)cc2)N(C)C)CC1` (stereo not shown) [Example 132, 5-{4-[dimethylamino-(4-fluorophenyl)-methyl]-cyclohexylmethyl}-1-phenethyl-4-propyl-4,5-dihydro-1H-imidazole-4-carboxylic acid methyl ester] it is 98%. The value for `CCCN1C=NC(CCC(=O)OC)(C(=O)OC)C1CC1CCC(C(c2ccc(F)cc2)N(C)C)CC1` (stereo not shown) [Example 159, 5-{4-[dimethylamino-(4-fluorophenyl)-methyl]-cyclohexylmethyl}-4-(2-methoxycarbonylethyl)-1-propyl-4,5-dihydro-1H-imidazole-4-carboxylic acid methyl ester] was 79%.
